Measurements as given in patent US8080644B2, “Oligonucleotide analogues” (Exiqon A/S, priority 1997, dated 2011).

Experiments:
[1] = test system: Nras amplicons (Nras 910, Nras 600, Nras 200); assay: Capture of Nras PCR amplicons by immobilised probes; assay type: binding, human; details: native amplicons; 1 pmol probe per well
Experimental: Three DIG labelled amplicons from Nras sequence (ref.: Nucleic Acid Research, 1985, Vol. 13, No. 14, p 52-55) were generated by PCR amplification as follows:
PCR reaction mixture for Nras amplicons: 2.3 μl human placental genomic DNA (440 ng/μl), 50 μl 10×PCR buffer (without MgCl2 Perkin Elmer), 30 μl 25 mM MgCl2, 50 μl dNTP-mix (2 mM dATP, dCTP, dGTP and 1.8 mM dTTP), 10 μl 1 mM Dig-11-dUTP, 10 μl 25 μM forward primer, 10 μl 25 μM reverse primer, 5 μl 5 U/μl AmpliTaq Gold (Perkin Elmer) and water ad 500 μl. PCR reaction: The above mixture was made for all the Nras PCR products. The only difference being reverse primer 910 bp, 600 bp or 200 bp added once at a time. The PCR mixtures were aliquoted into ten PCR tubes each and cycled in a Perkin Elmer 9600 at the following conditions: 95° C. 3 min; 55° C. 2 min, 72° C. 3 min, 95° C. 1 min (30 cycles); 55° C. 2 min, 72° C. 10 min and 4° C. soak. 10 μl from each PCR reaction was analysed on a standard agarose gel and the expected fragments of approximately 910 bp, 600 bp and 200 bp were observed. Assay conditions: Wells of a streptavidin coated micro-titer plate (Boehringer Mannheim; binding capacity of 20 pmol biotin per well) were incubated for 1 hour in 5×SSCT (0.75 M NaCl, 75 mM citrate, pH 7.0, 0.1% Tween 20) at 37° C. with either 1 pmol of DNA Nras Cap A (biotin-5′-TTCCACAGCACAA-3′) (SEQ ID NO:37), LNA/DNA Nras Cap A (biotin-5′-TTCCACAGCACAA-3′) (SEQ ID NO:38), LNA Nras Cap A (biotin-5′-TTCCACAGCACAA-3′) (SEQ ID NO:39), DNA Nras Cap B (biotin-5′-AGAGCCGATAACA-3′) (SEQ ID NO:40), LNA/DNA Nras Cap B (biotin-5′-AGAGCCGATAACA-3′) (SEQ ID NO:41) or LNA Nras Cap B (biotin-5′-AGAGCCGATAACA-3′) (SEQ ID NO:42); LNA nucleosides in bold. The Nras Cap A capture probes capture amplicons Nras 910, Nras 600 and Nras 200. Nras Cap B capture probes capture specific amplicons Nras 910 and Nras 600. After incubation with the different capture probes, the wells were washed in 5×SSCT and 5 μl native or denatured (95° C. 5 min and 10 min on ice) DIG-labelled amplicons (Nras 910, Nras 600 or Nras 200) in 95 μl 1×SSCT (0.15 M NaCl, 15 mM citrate, pH 7.0, 0.1% Tween 20) were added per well and incubated for 1 hour at 37° C. The wells were washed three times in phosphate buffered saline (1×PBST, 0.15 M Nat, pH 7.2, 0.05% Tween 20) and incubated 30 min at 37° C. with 200 μl peroxidase labelled anti-DIG antibodies (Boehringer Mannheim, diluted 1:1000 in 1×PBST). Finally the wells were washed three times in 1×PBST and assayed for peroxidase activity by adding 100 μl of substrate solution (0.1 M citrate-phosphate buffer pH 5.0, 0.66 mg/ml ortho-phenylenediamine dihydrochloride, 0.012% H2O2) the reaction was stopped after 9 min by adding 100 μl 0.5 M H2SO4 and diluted 4 times in H2SO4 before the absorbance at 492 nm was read in a micro-titer plate reader. […] We conclude that LNA modified oligos containing mixed LNA nucleosides (A, T, G or C LNA nucleosides) function efficiently in sequence specific capture of PCR amplicons when immobilised on a solid surface. We further conclude that LNA offers a means to construct capture probes that will function efficiently in amplicon capture without prior denaturation i.e. capture by strand displacement. This ability facilitates a significant simplification of current amplicon detection formats based on DNA.

[2] = biological target: terminal deoxynucleotidyl transferase (TdT) (Bos taurus, UniProt P06526); assay: Oligonucleotide tailing reaction with triphosphate as substrate; assay type: biochemical; details: 15mer primer, 25 U TdT, 32, 64 or 128 μM triphosphate, 90 min, 37° C.
Experimental: LNA-thymidine-5'-triphosphate (LNA-TTP) as a substrate for terminal deoxynucleotidyl transferase (TdT). In order to test the ability of the triphosphate of LNA-TTP (Example 123) to be accepted by terminal deoxynucleotidyl transferase as a substrate, an oligonucleotide tailing reaction was performed. A 15mer primer (sequence: [NT] ID NO:14) and a mixture of 8 to 32 base oligonucleotide markers were 5' end labelled with [γ^33P] ATP and T4 polynucleotide kinase. Reactions were boiled for 5 min after labelling to remove any PNK activity. Four picomoles of the labelled primer, 25 U terminal deoxynucleotidyl transferase and 32, 64 or 128 μM dTTP or LNA-TTP were incubated in 25 μl 100 mM cacodylate buffer pH 7.2, 2 mM CoCl2 and 0.2 mM 2-mercaptoethanol for 90 min at 37° C. […] Autoradiography using Biomax film was carried out on the dry gel.

[3] = biological target: exonuclease free Klenow fragment DNA polymerase I (EFK) (Escherichia coli, UniProt P00582, D355A/E357A); details: 500 μM LNA NTP, 2 units EFK, 37° C., 3 min
Experimental: A primer extension assay was used to evaluate the LNA NTP's (see Example 123), ribonucleotides, as substrates for exonuclease free Klenow fragment DNA polymerase I (EFK). The assay used a ^33P 5′ end labelled 15mer primer hybridised to one of four different 24mer templates. The sequences of the primer and templates are (LNA monomer in bold):
One picomole ^33P labelled primer was hybridised to 2 picomoles of template in ×2 Klenow buffer. To this was added either 4 μM dNTPαS or 500 μM LNA NTP or a mixture of 4 μM dNTPαS and 500 μM LNA NTP. Two units of EFK DNA polymerase was added to each reaction. 2 mU inorganic pyrophosphatase was added to each of the reactions. Primer plus template plus enzyme controls were also carried out. All reactions were carried out in a total volume of 20 μl. The reactions were incubated at 37° C. for 3 min. Reactions were then stopped by the addition of 10 μl formamide EDTA stop solution. Reaction products were separated on a 19% polyacrylamide 7M urea gel and the product fragments sized by comparison with a ^33P labelled 8 to 32 base oligonucleotide ladder after exposure to Kodak Biomax autoradiography film.

[4] = test system: MCF-7 human breast cancer cells
[5] = biological target: Exonuclease III (Escherichia coli, UniProt P09030)

“LNA/DNA Nras Cap A: biotin-5′-TTCCACAGCACAA-3′ (SEQ ID NO:38), spiked with 4 LNA nucleosides (LNA nucleosides spiked in, positions not given here, 5' biotin)” was tested, and the “capture of specific amplicons without prior denaturation” value [1] was “capture the same amplicons with a lower efficiency”.
Cc1cn([C@H]2C[C@H](O)[C@@H](COP(=O)(O)OP(=O)(O)OP(=O)(O)O)O2)c(=O)[nH]c1=O [dTTP, reference compound] was tested, and the primer extension product [2] was “greater than 100 nucleotides”.
For “DNA Nras Cap B: biotin-5′-AGAGCCGATAACA-3′ (SEQ ID NO:40), DNA capture probe (DNA, 5' {Biotin}, backbone not given here) [reference compound]”, the “capture of specific amplicons without prior denaturation” value [1] was “do not capture the specific amplicons at all”.
Cc1cn(C2OC3(COP(=O)(O)OP(=O)(O)OP(=O)(O)O)COC2C3O)c(=O)[nH]c1=O (centres unmarked) [LNA-TTP, LNA-thymidine-5′-triphosphate] was tested, and the “fraction of +1 product extended by a further base” value [2] was about 50% and the primer extension product [2] was “extended by one base”.
For Nc1ncnc2c1ncn2[C@@H]1O[C@@]2(COP(=O)(O)OP(=O)(O)OP(=O)(O)O)CO[C@@H]1[C@@H]2O [LNA ATP], the “incorporation into a DNA strand” value [3] was “efficiently incorporated to give the +1 product”.
For “LNA Cap B: biotin-5′-AGAGCCGATAACA-3′ (SEQ ID NO:42), spiked with 12 LNA nucleosides (12 LNA nucleosides, positions not given here, 5' biotin)”, the “capture of specific amplicons without prior denaturation” value [1] was “capture very efficiently the specific amplicons without prior denaturation”.
“DNA Nras Cap A: biotin-5′-TTCCACAGCACAA-3′ (SEQ ID NO:37), DNA capture probe (DNA, 5' {Biotin}, backbone not given here) [reference compound]” was tested, and the “capture of specific amplicons without prior denaturation” value [1] was “do not capture the specific amplicons at all”.
In the case of “LNA Nras Cap A: biotin-5′-TTCCACAGCACAA-3′ (SEQ ID NO:39), spiked with 12 LNA nucleosides (LNA nucleosides spiked in, positions not given here, 5' biotin)”, the “capture of specific amplicons without prior denaturation” value [1] is reported as “capture very efficiently the specific amplicons without prior denaturation”.
For Nc1nc2c(ncn2[C@@H]2O[C@@]3(COP(=O)(O)OP(=O)(O)OP(=O)(O)O)CO[C@@H]2[C@@H]3O)c(=O)[nH]1 [LNA GTP], the “incorporation into a DNA strand” value [3] was “able to produce the +1 product with efficient extension of the primer”.
In the case of “ODN#10: oligodeoxynucleotide (SEQ ID NO:56), a 35-mer complementary to human Cathepsin D (DNA TTAACGTAGGTGCTGGACTTGTCGCTGTTGTACTT; DNA, backbone and methylation of C not given here) [reference compound]”, the “added radioactivity associated with cellular material” value [4] is reported as “approximately 1.4%”.
With “P2: 5′-GC ATG TGC TGG AGA T-3′ (SEQ ID NO: 11), DNA primer (DNA GCATGTGCTGGAGAT; DNA, backbone and methylation of C not given here) [reference compound]” the “full length product left after the 5 minute incubation” value ([5]; 10 Units Exonuclease III, 37° C., 5 min, primer hybridised to template) was 20% and the “full length band, % of the signal” value ([5]; in the absence of the enzyme) was 99%.
With Nc1ccn([C@@H]2O[C@@]3(COP(=O)(O)OP(=O)(O)OP(=O)(O)O)CO[C@@H]2[C@@H]3O)c(=O)n1 [LNA CTP] the “incorporation into a DNA strand” value [3] was “efficiently incorporated to give the +1 product on Template 4”.
“LNA/DNA Nras Cap B: biotin-5′-AGAGCCGATAACA-3′ (SEQ ID NO:41), spiked with 4 LNA nucleosides (LNA nucleosides spiked in, positions not given here, 5' biotin)” was tested, and the “capture of specific amplicons without prior denaturation” value [1] was “capture the same amplicons with a lower efficiency”.
In the case of O=c1ccn([C@@H]2O[C@@]3(COP(=O)(O)OP(=O)(O)OP(=O)(O)O)CO[C@@H]2[C@@H]3O)c(=O)[nH]1 [LNA UTP], the “incorporation into a DNA strand” value [3] is reported as “specifically incorporated as a “T””.
With “AL17: LNA oligo 5′-d(ATA AAG TGT AAA G)-3′ (SEQ ID NO:58); also fluorescein/FITC-labelled (DNA ATAAAGTGTAAAG; LNA-containing, positions not given here, fluorescein label)” the “added radioactivity associated with cellular material” value [4] was “approximately 0.4%”.
